Experimental data taken from patent publication US7531545B2, “2-amino-3,4-dihydro-pyrido[3,4-d]pyrimidine derivatives useful as inhibitors of β-secretase (BACE)” (Janssen Pharmaceutica, N.V., priority 2005, dated 2009).
pIC50, pKi: −log10 of the molar value. Values joined by “and” are separate entries in the source; they are usually repeats but may differ in a detail not shown here. Equal entries are not always repeated. Structures can show the parent of a compound that is named as a salt.

Assays:
β-secretase (BACE) = target: T1, β-secretase (BACE) (Homo sapiens, UniProt P56817); test: BACE FS1 Assay (% Inhibition and Ki); type: biochemical; conditions: FS1 substrate; for inhibition at 0.3 µM: 0.3 μM test compound, read-out: % Inhibition (FS) @ 0.3 μM; for inhibition at 1 µM: 1 μM test compound, read-out: % Inhibition (FS) @ 1 μM; for inhibition at 3 µM: 3 μM test compound, read-out: % Inhibition (FS) @ 3 μM
T1 construct: purchased Panvera
Protocol: BACE FS1 Assay (% Inhibition and Ki)
The following reagents were used in this assay: sodium acetate, PEG8000 (Sigma), DMSO, HEPES, FS1 substrate [R(AedensE)[…]-(DabcylK)R], β-secretase (BACE) (Panvera), and 96-well plate (HE microplate, Molecular Devices).
The following assay buffers were prepared and used in this assay: (1) enzyme assay buffer (0.05 M sodium acetate, pH5, 0.1% PEG8000 (w/v)), (2) substrate assay buffer (0.05 M sodium acetate, pH5), and (3) compound vehicle (30% DMSO in 50 mM HEPES, pH 7.4).
The FS1-substrate stock solution was prepared in DMSO as a 10 mg/mL solution. The FS1-substrate working solution was prepared by diluting the 10 mg/mL stock solution with substrate assay buffer to a final concentration of 300 μg/mL. The β-secretase (BACE) working solution was prepared by diluting a 0.83 mg/mL BACE stock solution with enzyme assay buffer to a final concentration of 4 μg/mL.
Test compounds were dissolved in DMSO to 10 mM. Compounds were further diluted in vehicle to various concentrations in the range of 405 μM to 4.05 μM (13.5× final compound concentration in screening plate).
The screening procedure for this assay was as follows: 15 μL of BACE working solution was pipetted into each well of a 96-well plate. To each well was then pipetted 2 μL of test compound at the selected concentration. Test compound and BACE were then mixed with a pipettor and incubated for 20 min at room temperature. To each well was then added 10 μL of the FS1 substrate working solution. The plates were then incubated for 1 hour at room temperature. The fluorescence for each well was then measured on an LJL analyst (Ex 360 nm/Em 530 nm).
The procedure for the blank was as follows. 15 μL of assay buffer was pipetted into each well to be used as a blank control. To each well was then added 2 μL of vehicle and […] of FS1-substrate working solution. The plates were then incubated for 1 hour at room temperature. The fluorescence was measured on an LJL analyst (Ex 360 nm/Em 530 nm).
The procedure for the positive control was as follows: 15 μL of BACE working solution was pipetted into each well to be used as a positive control. To each well was then pipetted 2 μL of vehicle. Vehicle and BACE were then mixed with a pipettor and incubated for 20 min at room temperature. To each well was then added 10 μL of the FS1 substrate working solution. The plates were then incubated for 1 hour at room temperature. The fluorescence (F1) was then measured on an LJL analyst (Ex 360 nm/Em 530 nm).
For test compounds, % inhibition was determined at each concentration as follows:
% Inhibition values of less than 30% were indistinguishable from control are listed as ≦30% in Table 18, below.
For test compounds, measured at multiple concentrations, the measured T0 and T60 values were used to calculate an IC50 value using Graphpad Software (or PIR). Ki inhibition was determined as follows: For each compound concentration and positive control, rate of cleavage of substrate (Vi, where i=compound concentration in μM) was determined as Δ Fluorescence/Δ time (min). Cleavage rates (Vi) were plotted as a function of inhibitor concentration in μM [I]. […]

human BACE-1 = human BACE-1 (Homo sapiens, UniProt P56817); test: CEREP BACE Inhibition Assay; type: biochemical; conditions: recombinant enzyme
Outline: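 Recombinant human BACE-1 (0.25 μg) was assayed in 0.09 M sodium acetate pH 4.5, with activity followed fluorimetrically as formation of Mca-S-E-V-N-L[…] from peptide substrate. Compound autofluorescence was checked at the detection wavelengths. Basal signal was taken from wells without substrate.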

[1] = 0.3 μM, percent inhibition of the control activity

human BACE-1, sequence (P56817 46-501): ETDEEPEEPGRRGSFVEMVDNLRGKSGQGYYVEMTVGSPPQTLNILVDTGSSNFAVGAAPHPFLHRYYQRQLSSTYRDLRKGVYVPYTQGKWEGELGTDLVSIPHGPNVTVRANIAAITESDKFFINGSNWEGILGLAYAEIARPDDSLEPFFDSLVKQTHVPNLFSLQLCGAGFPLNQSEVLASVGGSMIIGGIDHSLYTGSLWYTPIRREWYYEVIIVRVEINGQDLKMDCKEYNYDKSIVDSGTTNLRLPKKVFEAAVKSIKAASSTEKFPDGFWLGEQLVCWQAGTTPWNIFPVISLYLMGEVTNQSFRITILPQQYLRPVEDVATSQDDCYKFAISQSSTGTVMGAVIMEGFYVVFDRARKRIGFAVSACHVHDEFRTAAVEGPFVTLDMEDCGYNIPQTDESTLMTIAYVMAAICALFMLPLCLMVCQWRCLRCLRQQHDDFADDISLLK
T1 sequence (P56817 46-501): as above

| inhibition at 0.3 µM (β-secretase (BACE)) [%] | inhibition at 1 µM (β-secretase (BACE)) [%] | inhibition at 3 µM (β-secretase (BACE)) [%] | pKi (β-secretase (BACE)) | % Inhibition @ 0.3 μM (human BACE-1; [1]) | inhibition at 0.3 µM (human BACE-1; [1]) [%] | pIC50 (human BACE-1; read-out: IC50) | SMILES |
| --- | --- | --- | --- | --- | --- | --- | --- |
| 136 | 136 | 134 | 8.00 | 95% and 100% | 91 | 6.85 and 6.82 | NC1=Nc2cnc(Oc3ccccc3)cc2CN1[C@@H](CCC(=O)N(CCO)C1CCCCC1)C1CCCCC1 [Compound 7, 4-(2-Amino-6-phenoxy-4H-pyrido[3,4-d]pyrimidin-3-yl)-4S,N-dicyclohexyl-N-(2-hydroxy-ethyl)-butyramide] |
| 112 | 111 | 114 | 7.92 |  |  |  | NC1=Nc2cnc(Oc3ccccc3)cc2CN1[C@@H](CCC(=O)N(CCO)[C@H]1CC[C@@H](C(=O)O)CC1)C1CCCCC1 [Compound 37] |
| 112 | 110 | 115 | 8.05 |  |  |  | NC1=Nc2cnc(Oc3ccccc3)cc2CN1[C@@H](CCC(=O)N(CCO)[C@H]1CC[C@@H](C(=O)O)CC1)C1CCOCC1 [Compound 38, 4-[[4-(2-Amino-6-phenoxy-4H-pyrido[3,4-d]pyrimidin-3-yl)-4-(S)-(tetrahydro-pyran-4-yl)-butyryl]-(2-hydroxy-ethyl)-amino]-cyclohexanecarboxylic acid] |
| 112 | 110 | 115 | 7.89 |  |  |  | NC1=Nc2cnc(Oc3ccccc3)cc2CN1[C@@H](CCC(=O)N(CCOCc1ccccc1)[C@H]1CC[C@@H](C(=O)O)CC1)C1CCOCC1 [Compound 39, 4-[[4-(2-Amino-6-phenoxy-4H-pyrido[3,4-d]pyrimidin-3-yl)-4-(S)-(tetrahydro-pyran-4-yl)-butyryl]-(2-benzyloxy-ethyl)-amino]-cyclohexanecarboxylic acid] |
| 110 | 107 | 115 | 7.80 |  |  |  | CC(C)[C@H](CCC(=O)N(C)[C@H]1CC[C@@H](C(=O)O)CC1)N1Cc2cc(Oc3ccccc3)ncc2N=C1N [Compound 43] |
| 61 | 88 | 105 | 6.83 |  |  |  | CN(CCCCC(=O)O)C(=O)CC[C@@H](C1CCCCC1)N1Cc2cc(Oc3ccccc3)ncc2N=C1N [Compound 44] |
| 82 | 91 | 110 | 6.90 |  |  |  | COC(=O)[C@H](COCc1ccccc1)NC(=O)CC[C@@H](C(C)C)N1Cc2cc(Oc3ccccc3)ncc2N=C1N [Compound 45, 2-[4-(2-Amino-6-phenoxy-4H-pyrido[3,4-d]pyrimidin-3-yl)-5-methyl-(S)-hexanoylamino]-3-(S)-benzyloxy-propionic acid methyl ester hydrobromide salt] |
| 109 | 109 | 115 | 7.14 |  |  |  | CC(C)[C@H](CCC(=O)N[C@@H](COCc1ccccc1)C(=O)O)N1Cc2cc(Oc3ccccc3)ncc2N=C1N [Compound 47, 2-[4-(2-Amino-6-phenoxy-4H-pyrido[3,4-d]pyrimidin-3-yl)-5-methyl-(S)-hexanoylamino]-3-(S)-benzyloxy-propionic acid] |
| 73 | 107 | 116 | 7.44 |  |  |  | CC(C)[C@H](CCC(=O)N[C@H](COCc1ccccc1)C(=O)OCc1ccccc1)N1Cc2cc(Oc3ccccc3)ncc2N=C1N [Compound 48] |
| 68 | 100 | 112 | 7.24 |  |  |  | CCC(CC)N(CCO)C(=O)CC[C@@H](C1CCCCC1)N1Cc2cc(Oc3ccccc3)ncc2N=C1N [Compound 50] |
| 114 | 118 | 118 | 7.85 |  |  |  | COC(=O)[C@H](COCc1ccccc1)N(C)C(=O)CC[C@@H](C(C)C)N1Cc2cc(Oc3ccccc3)ncc2N=C1N [Compound 51, 2-{[4-(2-Amino-6-phenoxy-4H-pyrido[3,4-d]pyrimidin-3-yl)-5-methyl-(S)-hexanoyl]-methyl-amino}-3-(S)-benzyloxy-propionic acid methyl ester trifluoroacetate salt] |
| 107 | 118 | 118 | 8.05 |  |  |  | CC(C)[C@H](CCC(=O)N(C)[C@@H](COCc1ccccc1)C(=O)O)N1Cc2cc(Oc3ccccc3)ncc2N=C1N [Compound 52, 2-{[4-(2-Amino-6-phenoxy-4H-pyrido[3,4-d]pyrimidin-3-yl)-5-methyl-(S)-hexanoyl]-methyl-amino}-3-(S)-benzyloxy-propionic acid trifluoroacetate salt] |
